US20260041093A1, “Ionic Derivatives Of Aromatic Carboxylic Acid For Use As Plant Stimulants, Method For Stimulating Plants And Use Of These Derivatives For Manufacturing Compositions For Stimulating Plants” (FUNDACJA UNIWERSYTETU IM. ADAMA MICKIEWICZA W POZNANIU, priority 2022, published 2026)
Where two headings read alike, the source gives them in different places.

Assays:
[1] = test system: Pseudomonas syringae pv. Tomato (Pst); experiment: Protection of tomato against Pseudomonas syringae pv. Tomato by spraying (Example 33); assay type: in vivo, Lycopersicon Esculentum Mill tomato; settings: 80 mg/L, sprayed twice; 2 weeks after infection
Description: (§1) Tomato plants, at the stage of the first pair of developed true leaves, were watered twice with a solution of substance 1-6 at a concentration of 80 mg/L, at a weekly interval. The control was tomato plants watered only with water. One week after the second treatment, a suspension of Pst bacteria at a concentration of 10^5 was spot-injected into the leaves using an insulin syringe (without a needle). The suspension was prepared from a two-day culture of Pst on solid medium. Protection against biotic stress was evaluated by the proliferation of bacteria in the leaves at the insertion site and the formation of a necrotic spot, compared to the control.
The procedure was followed as in Example 32, with the plants sprayed.

TMV [2] = experiment: Protection of tobacco against TMV, single spray, comparison with BION (Example 26); assay type: in vivo, Nicotiana tabacum cv. Xanthi; settings: sprayed once, infected a week later
Description: Tobacco plants (Nicotiana tabacum) cv. Xanthi at the stage of three developed leaves were sprayed once with solutions of substance 1-5 or BION™ at concentrations of 10, 40, 80 mg/L. A week later, they were mechanically infected with TMV by rubbing the leaves with a square soaked in a suspension of purified virus, with a concentration of about 2 μg/ml. The level of protection against the effects of biotic stress was evaluated by comparing the number of necrotic spots caused by TMV on the leaves of plants treated with substances 1-5 and BION™ and control plants.
A reduction in the number of necrotic spots indicates protection from the effects of the biotic agent on the plant.

[3] = test system: Pseudomonas syringae pv. Tomato (Pst); experiment: Protection of tomato against Pseudomonas syringae pv. Tomato by watering (Example 32); assay type: in vivo; settings: 80 mg/L; watered twice; Pst 10^5; 2 weeks after infection
Description: as §1

TMV [4] = experiment: Protection of tobacco against TMV infected 3 weeks after the last treatment (Example 27); assay type: in vivo; settings: infected with TMV 3 weeks after the last treatment
Description: They proceeded as in Example 24, using substances 1-4 at concentrations of 10, 40 and 80 mg/L for treatment, with treated and control plants divided into 3 batches and their leaves infected with the virus 1, 2 and 3 weeks after the last treatment, respectively. […] A similar effect occurred with spraying.

[5] = test system: Pseudomonas syringae pv. Tomato (Pst); settings: 2 weeks after infection
Description: Tobacco plants at the stage of 3 developed leaves were watered twice, at a weekly interval, with a solution of test substances 1-11 at concentrations of 10, 40, 80 mg/L. The control was tobacco plants watered with water only. One week after the second treatment, a suspension of Pst bacteria at a concentration of 10^5 was spotted into the leaves using an insulin syringe (without a needle). The suspension was prepared from a two-day culture of Pst on solid medium. Protection against biotic stress was evaluated by the proliferation of bacteria in the leaves at the insertion site and the formation of a necrotic spot, compared to the control.
We proceeded as in Example 30, with the effectiveness of protection against biotic stress tested against bacterial cell concentrations raised to about 10^6.

powdery mildew fungus [6] = experiment: Protection of tomato against powdery mildew by spraying (Example 35); assay type: in vivo, Lycopersicon Esculentum Mill tomato; settings: 40 mg/l, sprayed twice; 2 weeks after pathogen inoculation
Description: […] The control was tomato plants watered only with water. […] The suspension was prepared from culture on solid medium. Protection against biotic stress was evaluated by comparing the area of leaves affected by infection.
Proceeded in the way as described in Example 34, with the difference that plants were sprayed and not watered.

[7] = test system: Tobacco Mosaic Virus (TMV); experiment: Protection of tobacco against TMV infection by spraying twice (Example 25); assay type: in vivo, Nicotiana tabacum cv. Xanthi; settings: sprayed twice, 7 days after infection
From the text: 5-chlorosalicylate of choline; 3. 3,5-dichlorosalicylate of choline; 4. 3-chlorosalicylate of sodium, 5. 3-chlorosalicylate of potassium, 6. 3-chlorosalicylate of calcium, 7.

powdery mildew fungus [8] = assay type: in vivo, tomato; settings: 80 mg/L, watered twice; 2 weeks after infection
Description: Tomato plants, at the stage of the first pair of developed true leaves, were watered twice with a solution of substance 1-32 at a concentration of 80 mg/L, at a weekly interval. The control was tomato plants watered only with water. […] The suspension was prepared from culture on solid medium. Protection against biotic stress was evaluated by comparing the area of leaves affected by infection.

poinsettia = settings: treated three times, 50 mg/L; not watered for 7 days; control plants wilted
From the text: The plants were then subjected to drought stress—they were not watered for 7 days.

SMILES: C[N+](C)(C)CCO.O=C([O-])c1cccc(Cl)c1O [choline 3-chlorosalicylate]
- % reduction in necrotic spots compared to control [1]: 93%
- % reduction in necrotic spots compared to control (TMV [2]; 10 mg/L): 58%
- % reduction in necrotic spots compared to control (TMV [2]; 40 mg/L): 92%
- % reduction in necrotic spots compared to control (TMV [2]; 80 mg/L): 98%
- % reduction in necrotic spots compared to control [3]: 92%
- % reduction in necrotic spots compared to control (TMV [4]; 10 mg/L): 58%
- % reduction in necrotic spots compared to control (TMV [4]; 40 mg/L): 92%
- % reduction in necrotic spots compared to control (TMV [4]; 80 mg/L): 98%
- % reduction in necrotic spots compared to control ([5]; 10 mg/L, watered twice, Pst 10^5): 65%
- % reduction in necrotic spots compared to control ([5]; 40 mg/L, watered twice, Pst 10^5): 72%
- % reduction in necrotic spots compared to control ([5]; 80 mg/L, bacterial cell concentration raised to about 10^6): 85%
- % reduction in necrotic spots compared to control ([5]; 80 mg/L, watered twice, Pst 10^5): 89%
- Reduction in necrotic spots (white patches) compared to control (powdery mildew fungus [6]): 72%
- % reduction in necrotic spots compared to control ([7]; 10 mg/L): 80%
- % reduction in necrotic spots compared to control ([7]; 40 mg/L): 100%
- % reduction in necrotic spots compared to control ([7]; 80 mg/L): 85%
- % reduction in necrotic spots compared to control (powdery mildew fungus [8]): 95%
- drought effects on the plants (poinsettia): no drought effects were observed
